Measured values published in patent US6809200B2, “Process for the preparation of pyrazolo[4,3-d]pyrimidin-7-one compounds and intermediates thereof” (Pfizer Inc., priority 2000, dated 2004).

How the values were obtained:
[1] = Dynamic Vapour Sorption (DVS) measurements; format: physicochemical
From the text: Dynamic Vapour Sorption (DVS) measurements were made for the compound of Example 12 by exposing a solid sample to controlled relative humidity (% RH) and weight change recorded with time on an automated water sorption analyser.

[2] = Preliminary analysis of hygroscopicity / hydration state; format: physicochemical; settings: solid compound

Row | Structure (SMILES) | weight lost on drying (sorption/desorption isotherm) ([1]; DVS, loss due to residual solvent or surface moisture) | hygroscopicity ([1]; solid sample exposed to controlled relative humidity) | hygroscopicity (preliminary analysis) [2]
1 | CCCCOc1ncc(C(C)=O)cc1-c1nc2c(CC)n(C3CN(CC)C3)nc2c(=O)[nH]1.O=S(=O)(O)c1ccccc1 [Example 12, 5-(5-Acetyl-2-butoxy-3-pyridinyl)-3-ethyl-2-(1-ethyl-3-azetidinyl)-2,6dihydro-7H-pyrazolo[4,3-d]pyrimidin-7-one benzenesulfonate] | 0.9% | non-hygroscopic | 
2 | CCCCOc1ncc(C(C)=O)cc1-c1nc2c(CC)n(C3CN(CC)C3)nc2c(=O)[nH]1 [compound 1A, 5-(5-Acetyl-2-butoxy-3-pyridinyl)-3-ethyl-2-(1-ethyl-3-azetidinyl)-2,6-dihydro-7H-pyrazolo[4,3-d]pyrimidin-7-one] |  |  | anhydrous and non-hygroscopic
